Data set [1] deals with T1, acetylcholinesterase (Rattus norvegicus, UniProt P37136).
T1 construct: Using rat brain homogenate as a source of acetylcholinesterase; from tissue; host or cells: rat brain homogenate
T1 sequence (P37136 32-614): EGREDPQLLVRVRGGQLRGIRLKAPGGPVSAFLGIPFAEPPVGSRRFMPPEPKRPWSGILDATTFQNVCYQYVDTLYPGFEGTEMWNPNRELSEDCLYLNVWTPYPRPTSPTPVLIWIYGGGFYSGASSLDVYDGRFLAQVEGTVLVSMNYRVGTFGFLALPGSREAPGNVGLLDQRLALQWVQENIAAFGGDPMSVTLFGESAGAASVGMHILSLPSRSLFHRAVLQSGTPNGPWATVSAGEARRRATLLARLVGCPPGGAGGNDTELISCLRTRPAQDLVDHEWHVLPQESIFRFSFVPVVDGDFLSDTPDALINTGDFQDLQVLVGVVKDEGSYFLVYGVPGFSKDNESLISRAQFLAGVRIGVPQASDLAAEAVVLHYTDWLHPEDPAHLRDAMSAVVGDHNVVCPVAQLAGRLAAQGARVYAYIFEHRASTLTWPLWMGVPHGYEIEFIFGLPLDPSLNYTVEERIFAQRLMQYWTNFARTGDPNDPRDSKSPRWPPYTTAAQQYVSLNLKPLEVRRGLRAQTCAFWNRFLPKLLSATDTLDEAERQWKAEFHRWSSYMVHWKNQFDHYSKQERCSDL
The experiment in a line: biochemical. The following applies: rat brain homogenate as enzyme source; acetylthiocholine substrate, DTNB, absorbance at 412 nm. How it is done: In Vitro Acetylcholinsterase Inhibitory Effect
Using rat brain homogenate as a source of acetylcholinesterase, esterase activity was assayed in accordance with the method of Ellman et al. ^1). That is, acetylthiocholin as a substrate, a test compound and DTNB (5,5′-dithiobis(2-nitrobenzoic acid)) were added to […] brain homogenate, and after incubation, the produced thiocholine was reacted with DTNB to produce a yellow product. This was measured as a change in absorbance at 412 nm to obtain acetylcholineesterase activity. The acetylcholineesterase inhibiting activity of each test compound was obtained as 50% inhibition concentration (IC50). Note that the test compounds were used after dissolving them in physiological saline. Ellman, G. L., Courtney, K. D., Andres, V. and Featherstone, R. M., (1961), Biochem. Pharmacol., 7, 88–95.

Counter-ions that a name gives are not always drawn.

As usually defined, the IC50 is the concentration needed to halve the response being measured. High values mean weaker potency in that assay, low ones greater potency in that assay. In turn, `COc1cc2c(cc1OC)C(=O)C(Cl)(CC1CCN(Cc3ccccc3)CC1)C2` (stereo not drawn) [Example 1, 1-Benzyl-4-[(5,6-dimethoxy-2-chloro-1-indanon)-2-yl]methylpiperidine hydrochloride] yielded an IC50 in data set [1] of 2 nM.

`CCOc1cc2c(cc1OCC)C(=O)C(Cl)(CC1CCN(Cc3ccccc3)CC1)C2` (stereo not drawn) [Example 6, hydrochloride]: the IC50 in data set [1] turned out to be 2 nM.

By melting point is commonly meant the temperature, or range, at which the solid turns liquid. For `COc1cc2c(cc1OC)C(=O)C(CC1CCN(Cc3ccccc3)CC1)(N=[N+]=[N-])C2.Cl` (stereo not drawn), the melting point fell in the range of 153 to 154 °C.
